Converted amounts (≈) assume the structure as drawn.
Experiments:
[1] = tested on: Candida albicans; assay: Antifungal activity against fluconazole-sensitive Candida albicans ATCC 10231 after 48 hr by broth dilution method; format: functional; details: ATCC 10231, 48 h
[2] = tested on: Candida albicans; assay: Antifungal activity against fluconazole-resistant Candida albicans NCIM 3446 after 48 hr by broth dilution method; format: functional; details: NCIM 3446, 48 h

For `COc1ccc(/C=C/C(=O)c2cccs2)cc1OC`, the MIC [1] was 10 µg/mL (≈ 36.5 µM) and the MIC [2] was 20 µg/mL (≈ 72.9 µM).

`CSc1ccc(/C=C/C(=O)c2ccc(F)cc2)cc1` gave an MIC [1] of 5 µg/mL (≈ 18.4 µM) and an MIC [2] of 8 µg/mL (≈ 29.4 µM).

`CSc1ccc(/C=C/C(=O)c2ccc(-c3ccccc3)cc2)cc1` showed an MIC [1] of 100 µg/mL (≈ 303 µM) and an MIC [2] of 250 µg/mL (≈ 757 µM).

`CSc1ccc(/C=C/C(=O)c2cccs2)cc1` gave an MIC [1] of 5 µg/mL (≈ 19.2 µM) and an MIC [2] of 5 µg/mL (≈ 19.2 µM).

In the case of `CSc1ccc(/C=C/C(=O)c2ccc(Br)s2)cc1`, the MIC [1] is reported as 40 µg/mL (≈ 118 µM) and the MIC [2] is reported as 50 µg/mL (≈ 147 µM).

`COc1ccc(/C=C/C(=O)c2ccc(Br)s2)cc1OC` was tested, and the MIC [1] was 50 µg/mL (≈ 142 µM) and the MIC [2] was 100 µg/mL (≈ 283 µM).

`O=C(/C=C/c1ccc(-c2ccccc2)cc1)c1cccs1` was tested, and the MIC [1] was 100 µg/mL (≈ 344 µM) and the MIC [2] was 250 µg/mL (≈ 861 µM).

Compound `O=C(/C=C/c1ccc(-c2ccccc2)cc1)c1ccc(Br)s1` has an MIC [1] of 100 µg/mL (≈ 271 µM) and an MIC [2] of 250 µg/mL (≈ 677 µM).

In the case of `COc1ccc(/C=C/C(=O)c2cccs2)cc1`, the MIC [1] is reported as 20 µg/mL (≈ 81.9 µM) and the MIC [2] is reported as 20 µg/mL (≈ 81.9 µM).

For `COc1ccc(/C=C/C(=O)c2ccc(Br)s2)cc1`, the MIC [1] was 50 µg/mL (≈ 155 µM) and the MIC [2] was 100 µg/mL (≈ 309 µM).

In the case of `CSc1ccc(/C=C/C(=O)c2ccc([N+](=O)[O-])cc2)cc1`, the MIC [1] is reported as 50 µg/mL (≈ 167 µM) and the MIC [2] is reported as 100 µg/mL (≈ 334 µM).

Compound `CSc1ccc(/C=C/C(=O)c2ccc(Cl)cc2)cc1` has an MIC [1] of 10 µg/mL (≈ 34.6 µM) and an MIC [2] of 20 µg/mL (≈ 69.3 µM).

For `CSc1ccc(/C=C/C(=O)c2cccc(O)c2)cc1`, the MIC [1] was 20 µg/mL (≈ 74 µM) and the MIC [2] was 40 µg/mL (≈ 148 µM).

`COc1ccc(C(=O)/C=C/c2ccc(SC)cc2)cc1` was tested, and the MIC [1] was 10 µg/mL (≈ 35.2 µM) and the MIC [2] was 20 µg/mL (≈ 70.3 µM).

`CSc1ccc(/C=C/C(=O)c2ccccc2O)cc1` showed an MIC [1] of 20 µg/mL (≈ 74 µM) and an MIC [2] of 20 µg/mL (≈ 74 µM).

`CSc1ccc(/C=C/C(=O)c2ccccc2)cc1` was tested, and the MIC [1] was 20 µg/mL (≈ 78.6 µM) and the MIC [2] was 40 µg/mL (≈ 157 µM).

`CSc1ccc(/C=C/C(=O)c2ccc(Cl)cc2Cl)cc1` gave an MIC [1] of 50 µg/mL (≈ 155 µM) and an MIC [2] of 200 µg/mL (≈ 619 µM).

With `CSc1ccc(/C=C/C(=O)c2ccc(Br)cc2)cc1` the MIC [1] was 40 µg/mL (≈ 120 µM) and the MIC [2] was 100 µg/mL (≈ 300 µM).

`CSc1ccc(/C=C/C(=O)c2ccc(O)cc2)cc1` showed an MIC [1] of 20 µg/mL (≈ 74 µM) and an MIC [2] of 40 µg/mL (≈ 148 µM).

With `COc1ccc(C(=O)/C=C/c2ccc(OC)c(OC)c2)cc1` the MIC [1] was 20 µg/mL (≈ 67 µM) and the MIC [2] was 10 µg/mL (≈ 33.5 µM).

Compound `OC(Cn1cncn1)(Cn1cncn1)c1ccc(F)cc1F` [FLUCONAZOLE] has an MIC [1] of 20 µg/mL (≈ 65.3 µM) and an MIC [2] of 100 µg/mL (≈ 327 µM).
